Source: ChEMBL document CHEMBL3797052 (Eur J Med Chem, 2016)

What was measured:
[1] = system: NCI-H322M; assay: Antiproliferative activity against human NCI-H322M cells assessed as growth inhibition after 48 hrs by sulforhodamine B assay; assay type: functional
[2] = Antiproliferative activity against human RXF393 cells assessed as cell growth at 10^-7 M after 48 hrs by sulforhodamine B assay; assay type: functional; details: RXF 393, 48 h, read-out: Activity
[3] = system: MCF7; assay: Antiproliferative activity against human MCF7 cells assessed as cell growth at 10^-8 M after 48 hrs by sulforhodamine B assay; assay type: functional; details: MCF7, 48 h, read-out: Activity
[4] = system: A549; assay: Antiproliferative activity against human A549/ATCC cells assessed as cell growth at 10^-8 M after 48 hrs by sulforhodamine B assay; assay type: functional; details: A549, 48 h, read-out: Activity
[5] = Antiproliferative activity against human IGROV1 cells assessed as cell growth at 10^-6 M after 48 hrs by sulforhodamine B assay; assay type: functional; details: IGROV-1, 48 h, read-out: Activity
[6] = system: EKVX; assay: Antiproliferative activity against human EKVX cells assessed as growth inhibition after 48 hrs by sulforhodamine B assay; assay type: functional; details: for CC50: read-out: LC50 (the source's name)
[7] = system: SR; assay: Antiproliferative activity against human SR cells assessed as cell growth at 10^-7 M after 48 hrs by sulforhodamine B assay; assay type: functional; details: read-out: Activity
[8] = Antiproliferative activity against human IGROV1 cells assessed as cell growth at 10^-4 M after 48 hrs by sulforhodamine B assay; assay type: functional; details: IGROV-1, 48 h, read-out: Activity
[9] = Antiproliferative activity against human OVCAR8 cells assessed as cell growth at 10^-7 M after 48 hrs by sulforhodamine B assay; assay type: functional; details: OVCAR-8, 48 h, read-out: Activity
[10] = system: U-251; assay: Antiproliferative activity against human U251 cells assessed as growth inhibition after 48 hrs by sulforhodamine B assay; assay type: functional; details: U-251, 48 h
[11] = system: NCI-H23; assay: Antiproliferative activity against human NCI-H23 cells assessed as growth inhibition after 48 hrs by sulforhodamine B assay; assay type: functional; details: NCI-H23, 48 h
[12] = Antiproliferative activity against human HCC2998 cells assessed as growth inhibition after 48 hrs by sulforhodamine B assay; assay type: functional; details: HCC 2998, 48 h; for CC50: read-out: LC50 (the source's name)
[13] = Antiproliferative activity against human SNB19 cells assessed as cell growth at 10^-4 M after 48 hrs by sulforhodamine B assay; assay type: functional; details: SNB-19, 48 h, read-out: Activity
[14] = system: M14; assay: Antiproliferative activity against human M14 cells assessed as growth inhibition after 48 hrs by sulforhodamine B assay; assay type: functional; details: M14, 48 h; for CC50: read-out: LC50 (the source's name)
[15] = target: CYP2C19 (Homo sapiens, UniProt P33261); assay: Inhibition of recombinant human CYP2C19 assessed as remaining enzyme activity at 10 uM after 5 mins in presence of NADP by fluorescence plate reader analysis; assay type: ADME; details: read-out: Activity
Chain of CYP2C19 (P33261 whole entry): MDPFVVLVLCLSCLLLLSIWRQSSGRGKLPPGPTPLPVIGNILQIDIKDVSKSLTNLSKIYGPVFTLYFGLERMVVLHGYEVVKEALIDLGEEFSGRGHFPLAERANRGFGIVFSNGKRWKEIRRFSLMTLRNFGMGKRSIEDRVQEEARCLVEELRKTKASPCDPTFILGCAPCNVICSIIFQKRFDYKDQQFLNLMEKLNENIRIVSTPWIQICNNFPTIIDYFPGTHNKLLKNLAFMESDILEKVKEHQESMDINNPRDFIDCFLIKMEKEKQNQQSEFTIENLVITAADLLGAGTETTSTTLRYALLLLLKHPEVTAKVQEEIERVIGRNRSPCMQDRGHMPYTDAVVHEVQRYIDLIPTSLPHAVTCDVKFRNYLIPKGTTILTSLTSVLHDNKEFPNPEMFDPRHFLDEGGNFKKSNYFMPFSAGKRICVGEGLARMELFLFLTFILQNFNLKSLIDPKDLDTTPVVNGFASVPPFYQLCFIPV

[16] = Antiproliferative activity against human PC3 cells assessed as cell growth at 10^-8 M after 48 hrs by sulforhodamine B assay; assay type: functional; details: PC-3, 48 h, read-out: Activity
[17] = system: NCI-H322M; assay: Antiproliferative activity against human NCI-H322M cells assessed as cell growth at 10^-8 M after 48 hrs by sulforhodamine B assay; assay type: functional; details: read-out: Activity
[18] = Antiproliferative activity against human HL-60(TB) cells assessed as cell growth at 10^-6 M after 48 hrs by sulforhodamine B assay; assay type: functional; details: HL-60, 48 h, read-out: Activity
[19] = Antiproliferative activity against human HCT15 cells assessed as cell growth at 10^-8 M after 48 hrs by sulforhodamine B assay; assay type: functional; details: HCT-15, 48 h, read-out: Activity
[20] = system: CCRF-CEM; assay: Antiproliferative activity against human CCRF-CEM cells assessed as cell growth at 10^-4 M after 48 hrs by sulforhodamine B assay; assay type: functional; details: read-out: Activity
[21] = system: MDA-MB-468; assay: Antiproliferative activity against human MDA-MB-468 cells assessed as cell growth at 10^-6 M after 48 hrs by sulforhodamine B assay; assay type: functional; details: MDA-MB-468, 48 h, read-out: Activity
[22] = Antiproliferative activity against human OVCAR4 cells assessed as cell growth at 10^-7 M after 48 hrs by sulforhodamine B assay; assay type: functional; details: OVCAR-4, 48 h, read-out: Activity
[23] = Antiproliferative activity against human SF268 cells assessed as cell growth at 10^-4 M after 48 hrs by sulforhodamine B assay; assay type: functional; details: SF-268, 48 h, read-out: Activity
[24] = Antiproliferative activity against human HL-60(TB) cells assessed as cell growth at 10^-8 M after 48 hrs by sulforhodamine B assay; assay type: functional; details: HL-60, 48 h, read-out: Activity
[25] = Antiproliferative activity against human SF539 cells assessed as cell growth at 10^-4 M after 48 hrs by sulforhodamine B assay; assay type: functional; details: SF-539, 48 h, read-out: Activity
[26] = Antiproliferative activity against human UACC62 cells assessed as cell growth at 10^-4 M after 48 hrs by sulforhodamine B assay; assay type: functional; details: UACC-62, 48 h, read-out: Activity
[27] = system: SK-MEL-28; assay: Antiproliferative activity against human SK-MEL-28 cells assessed as growth inhibition after 48 hrs by sulforhodamine B assay; assay type: functional; details: SK-MEL-28, 48 h; for CC50: read-out: LC50 (the source's name)
[28] = Antiproliferative activity against human HL-60(TB) cells assessed as cell growth at 10^-4 M after 48 hrs by sulforhodamine B assay; assay type: functional; details: HL-60, 48 h, read-out: Activity
[29] = Antiproliferative activity against human OVCAR3 cells assessed as cell growth at 10^-6 M after 48 hrs by sulforhodamine B assay; assay type: functional; details: OVCAR-3, 48 h, read-out: Activity
[30] = Antiproliferative activity against human Hs 578T cells assessed as cell growth at 10^-6 M after 48 hrs by sulforhodamine B assay; assay type: functional; details: read-out: Activity
[31] = system: MCF7; assay: Antiproliferative activity against human MCF7 cells assessed as cell growth at 10^-6 M after 48 hrs by sulforhodamine B assay; assay type: functional; details: MCF7, 48 h, read-out: Activity
[32] = Antiproliferative activity against human Caki1 cells assessed as cell growth at 10^-4 M after 48 hrs by sulforhodamine B assay; assay type: functional; details: CAKI-1, 48 h, read-out: Activity
[33] = system: SK-MEL-5; assay: Antiproliferative activity against human SK-MEL-5 cells assessed as cell growth at 10^-6 M after 48 hrs by sulforhodamine B assay; assay type: functional; details: SK-MEL-5, 48 h, read-out: Activity
[34] = system: MCF7; assay: Antiproliferative activity against human MCF7 cells assessed as cell growth at 10^-4 M after 48 hrs by sulforhodamine B assay; assay type: functional; details: MCF7, 48 h, read-out: Activity
[35] = Antiproliferative activity against human SF539 cells assessed as cell growth at 10^-6 M after 48 hrs by sulforhodamine B assay; assay type: functional; details: SF-539, 48 h, read-out: Activity
[36] = system: SK-MEL-28; assay: Antiproliferative activity against human SK-MEL-28 cells assessed as cell growth at 10^-7 M after 48 hrs by sulforhodamine B assay; assay type: functional; details: SK-MEL-28, 48 h, read-out: Activity
[37] = Antiproliferative activity against human SNB19 cells assessed as cell growth at 10^-7 M after 48 hrs by sulforhodamine B assay; assay type: functional; details: SNB-19, 48 h, read-out: Activity

CNC(=O)c1cc(Oc2ccc3nc(NC(=O)c4cc(C(F)(F)F)cc(C(F)(F)F)c4)sc3c2)ccn1
GI50 [1]: 3.7 µM
LC50 (50% lethal concentration) [1]: > 100 µM
TGI [1]: 19.8 µM
growth at 0.1 µM [2]: 94%
growth at 0.01 µM [3]: 93%
growth at 0.01 µM [4]: 92%
growth at 1 µM [5]: 90%
GI50 [6]: 3.43 µM
TGI [6]: 23.3 µM
CC50 [6]: > 100 µM
growth at 0.1 µM [7]: 89%
growth at 100 µM [8]: -35%
growth at 0.1 µM [9]: 102%
GI50 [10]: 3.65 µM
LC50 [10]: 53.6 µM
TGI [10]: 13.7 µM
GI50 [11]: 3.37 µM
LC50 [11]: > 100 µM
TGI [11]: 17.7 µM
GI50 [12]: 6.63 µM
TGI [12]: 24.7 µM
CC50 [12]: 79.4 µM
growth at 100 µM [13]: -28%
GI50 [14]: 3.61 µM
TGI [14]: 19.5 µM
CC50 [14]: > 100 µM
activity at 5 min, 10 µM [15]: 10.3%
growth at 0.01 µM [16]: 96%
growth at 0.01 µM [17]: 91%
growth at 1 µM [18]: 114%
growth at 0.01 µM [19]: 104%
growth at 100 µM [20]: 25%
growth at 1 µM [21]: 95%
growth at 0.1 µM [22]: 92%
growth at 100 µM [23]: -37%
growth at 0.01 µM [24]: 92%
growth at 100 µM [25]: -61%
growth at 100 µM [26]: -56%
GI50 [27]: 3.76 µM
TGI [27]: 43.7 µM
CC50 [27]: > 100 µM
growth at 100 µM [28]: -45%
growth at 1 µM [29]: 90%
growth at 1 µM [30]: 94%
growth at 1 µM [31]: 87%
growth at 100 µM [32]: -63%
growth at 1 µM [33]: 83%
growth at 100 µM [34]: -49%
growth at 1 µM [35]: 87%
growth at 0.1 µM [36]: 96%
growth at 0.1 µM [37]: 103%

CNC(=O)c1cc(Oc2ccc3nc(NC(=O)Nc4ccc(Cl)c(Cl)c4)sc3c2)ccn1
GI50 [1]: 2.45 µM
LC50 (50% lethal concentration) [1]: > 100 µM
growth at 0.1 µM [2]: 101%
growth at 0.01 µM [3]: 87%
growth at 0.01 µM [4]: 98%
growth at 1 µM [5]: 98%
GI50 [6]: 3.3 µM
TGI [6]: > 100 µM
CC50 [6]: > 100 µM
growth at 0.1 µM [7]: 105%
growth at 100 µM [8]: -20%
growth at 0.1 µM [9]: 101%
GI50 [10]: 1.83 µM
LC50 [10]: 6.53 µM
TGI [10]: 3.46 µM
GI50 [11]: 2.78 µM
LC50 [11]: > 100 µM
TGI [11]: > 100 µM
GI50 [12]: 5.04 µM
TGI [12]: > 100 µM
CC50 [12]: > 100 µM
growth at 100 µM [13]: -74%
GI50 [14]: 2.13 µM
TGI [14]: 4.74 µM
CC50 [14]: > 100 µM
activity at 5 min, 10 µM [15]: 83.6%
growth at 0.01 µM [16]: 96%
growth at 0.01 µM [17]: 90%
growth at 1 µM [18]: 105%
growth at 0.01 µM [19]: 89%
growth at 100 µM [20]: 79%
growth at 1 µM [21]: 86%
growth at 0.1 µM [22]: 100%
growth at 100 µM [23]: -57%
growth at 0.01 µM [24]: 102%
growth at 100 µM [25]: -72%
growth at 100 µM [26]: -20%
GI50 [27]: 1.74 µM
TGI [27]: 3.56 µM
CC50 [27]: 7.31 µM
growth at 100 µM [28]: 89%
growth at 1 µM [29]: 99%
growth at 1 µM [30]: 108%
growth at 1 µM [31]: 84%
growth at 100 µM [32]: -17%
growth at 1 µM [33]: 94%
growth at 100 µM [34]: 7%
growth at 1 µM [35]: 100%
growth at 0.1 µM [36]: 100%
growth at 0.1 µM [37]: 110%
